Experimental data reported in ChEMBL document CHEMBL1201862, “PubChem BioAssay data set” (2004).
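The compound was tested at five concentrations on cells cultured in 96-well plates, with a 48-hour exposure period. The concentration for 50% growth inhibition is given as GI50.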 Activity calls are given as the source filed them. Cut-off read from the data, not from the text of the source: active = GI50 up to about 1.1 µM and inactive = higher.

Tests used:
Test in all cases: growth of human tumour cells (NCI), 48 h
CCRF-CEM = test system: CCRF-CEM
LOX IMVI = test system: LOX IMVI
UO-31 = test system: UO-31
HCT-15 = test system: HCT-15
ACHN = test system: ACHN
EKVX = test system: EKVX
OVCAR-8 = test system: OVCAR-8
COLO 205 = test system: COLO 205
SK-MEL-5 = test system: SK-MEL-5
UACC-62 = test system: UACC-62
MDA-MB-231 = test system: MDA-MB-231
M19-MEL = test system: M19-MEL
Hs-578T = test system: Hs-578T
786-0 = test system: 786-0
HCC 2998 = test system: HCC 2998
MDA-MB-435 = test system: MDA-MB-435
IGROV-1 = test system: IGROV-1
OVCAR-4 = test system: OVCAR-4
T47D = test system: T47D
SNB-19 = test system: SNB-19

| Structure (SMILES) | GI50 (CCRF-CEM) | GI50 (LOX IMVI) | GI50 (UO-31) | GI50 (HCT-15) | GI50 (ACHN) | GI50 (EKVX) | GI50 (OVCAR-8) | GI50 (COLO 205) | GI50 (SK-MEL-5) | GI50 (UACC-62) | GI50 (MDA-MB-231) | GI50 (M19-MEL) | GI50 (Hs-578T) | GI50 (786-0) | GI50 (HCC 2998) | GI50 (MDA-MB-435) | GI50 (IGROV-1) | GI50 (OVCAR-4) | GI50 (T47D) | GI50 (SNB-19) |
| --- | --- | --- | --- | --- | --- | --- | --- | --- | --- | --- | --- | --- | --- | --- | --- | --- | --- | --- | --- | --- |
| CC12OOC(c3ccccc31)c1c2ccc2ccccc12 (centres undefined) | 0.904 µM (active) | 2.12 µM (inactive) | 9.55 µM (inactive) | 2.17 µM | 1.73 µM (inactive) | 5.45 µM (inactive) | 6.71 µM (inactive) | 1.71 µM (inactive) | 8.53 µM (inactive) | 8.26 µM (inactive) | 12 µM (inactive) | 3.13 µM (inactive) | 18.9 µM (inactive) | 8.53 µM (inactive) | 5.05 µM (inactive) | 6.3 µM (inactive) | 1.53 µM (inactive) | 0.8 µM (active) | 1.82 µM (inactive) | 16.7 µM (inactive) |
| COC(=O)C12Oc3ccc(-c4ccc5c(c4O)C(=O)C4=CCC(C)C(O)C4(C(=O)OC)O5)c(O)c3C(=O)C1=CCC(C)C2O (centres undefined) | 0.733 µM (active) | 1.49 µM (inactive) | 1.46 µM (inactive) | 1.08 µM | 1.34 µM (inactive) | 1.88 µM (inactive) | 0.964 µM (active) | 1.32 µM (inactive) | 1.63 µM (inactive) | 1.29 µM (inactive) |  | 1.48 µM (inactive) |  | 1.53 µM (inactive) | 1.31 µM (inactive) |  | 1.62 µM (inactive) | 2.21 µM (inactive) |  | 2.34 µM (inactive) |
| Cc1cc(N(CCC#N)CCC#N)ccc1/C=N\c1ccc(C(=O)NN2C(=O)/C(=C/c3ccc(N(CCC#N)CCC#N)cc3)N=C2c2cc([N+](=O)[O-])ccc2Cl)cc1 | 65.6 µM (inactive) | > 100 µM (inactive) | > 100 µM (inactive) | 51.8 µM | 53.8 µM (inactive) | > 100 µM (inactive) | > 100 µM (inactive) | > 100 µM (inactive) | 55.3 µM (inactive) | 42.5 µM (inactive) |  | > 100 µM (inactive) |  | > 100 µM (inactive) | > 100 µM (inactive) |  | > 100 µM (inactive) | > 100 µM (inactive) |  | > 100 µM (inactive) |
| C[C@]12CC/C(=N\OC(=O)Nc3ccccc3)C=C1CC[C@@H]1C2CC[C@@]2(C)C1CC[C@@H]2OC(=O)Nc1ccccc1 (some centres undefined) | > 100 µM (inactive) | > 100 µM (inactive) | > 100 µM (inactive) | 3.3 µM | 99.3 µM (inactive) | > 100 µM (inactive) | > 100 µM (inactive) | > 100 µM (inactive) | 23.1 µM (inactive) | 59 µM (inactive) |  | 66.4 µM (inactive) |  | > 100 µM (inactive) | > 100 µM (inactive) |  | > 100 µM (inactive) | > 100 µM (inactive) |  | > 100 µM (inactive) |
| COC(=O)n1c(C[P+](c2ccccc2)(c2ccccc2)c2ccccc2)cc2ccccc21 | 0.931 µM (active) | 1.07 µM (active) | 0.604 µM (active) | 13.3 µM | 3.87 µM (inactive) | 0.774 µM (active) | 0.566 µM (active) | 1.26 µM (inactive) | 0.414 µM (active) | 2.77 µM (inactive) |  | 0.452 µM (active) |  | 2.41 µM (inactive) | 1.15 µM (inactive) |  | 0.664 µM (active) | 5.92 µM (inactive) |  | 1.31 µM (inactive) |
